The supplement of paper PMC10307832

Experiments:
Assay in all cases: relative viability (nuclei count vs DMSO), 5 days (fraction); higher = more cells survive
[1] = compound: O=C(O)c1ccc2c(c1)nc(Nc1cccc(Cl)c1)c1ccncc12 [Silmitasertib] + CC1(C)CCC(c2ccc(Cl)cc2)=C(CN2CCN(c3ccc(C(=O)NS(=O)(=O)c4ccc(N[C@H](CCN5CCOCC5)CSc5ccccc5)c(S(=O)(=O)C(F)(F)F)c4)cc3)CC2)C1 [Navitoclax] (partner 0.5 µM)
In short: (§1)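 Lung cancer cell lines in 1536-well plates got either a single drug or a fixed anchor-drug dose together with five library-drug doses (not always all listed) in √10 steps, by pin tool, on the day after seeding. Nuclei were counted after 5 days, and relative viability is the treated-to-vehicle ratio of nuclei counts. Values are medians of duplicate plates.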

[2] = compound: O=C(O)c1ccc2c(c1)nc(Nc1cccc(Cl)c1)c1ccncc12 [Silmitasertib] + COc1cc2c(Oc3ccc(NC(=O)C4(C(=O)Nc5ccc(F)cc5)CC4)cc3F)ccnc2cc1OCCCN1CCOCC1 [Foretinib] (partner 0.25 µM)
In short: as §1

[3] = compound: O=C(O)c1ccc2c(c1)nc(Nc1cccc(Cl)c1)c1ccncc12 [Silmitasertib] + Cc1cc(Nc2cc(N3CCN(C)CC3)nc(Sc3ccc(NC(=O)C4CC4)cc3)n2)n[nH]1 [Tozasertib] (partner 0.1 µM)
In short: as §1

[4] = compound: O=C(O)c1ccc2c(c1)nc(Nc1cccc(Cl)c1)c1ccncc12 [Silmitasertib] + Cc1nc(Nc2ncc(C(=O)Nc3c(C)cccc3Cl)s2)cc(N2CCN(CCO)CC2)n1 [Dasatinib] (partner 0.075 µM)
In short: as §1

[5] = compound: O=C(O)c1ccc2c(c1)nc(Nc1cccc(Cl)c1)c1ccncc12 [Silmitasertib] + Nc1ncn([C@H]2C[C@H](O)[C@@H](CO)O2)c(=O)n1 [Decitabine] (partner 2 µM)
In short: as §1

Row | Cell Line | relative viability ([1]; first compound 0.04 µM) | relative viability ([1]; first compound 0.4 µM) | relative viability ([1]; first compound 1.265 µM) | relative viability ([1]; first compound 4 µM) | relative viability ([2]; first compound 0.04 µM) | relative viability ([2]; first compound 0.4 µM) | relative viability ([2]; first compound 1.265 µM) | relative viability ([2]; first compound 4 µM) | relative viability ([3]; first compound 0.04 µM) | relative viability ([3]; first compound 0.4 µM) | relative viability ([3]; first compound 1.265 µM) | relative viability ([3]; first compound 4 µM) | relative viability ([4]; first compound 0.04 µM) | relative viability ([4]; first compound 0.4 µM) | relative viability ([4]; first compound 1.265 µM) | relative viability ([4]; first compound 4 µM) | relative viability ([5]; first compound 0.04 µM) | relative viability ([5]; first compound 0.4 µM) | relative viability ([5]; first compound 1.265 µM) | relative viability ([5]; first compound 4 µM)
1 | SK-LU-1 | 0.984 | 0.532 | 0.671 | 0.217 | 0.954 | 0.693 | 0.621 | 0.417 | 0.358 | 0.315 | 0.221 | 0.195 | 0.203 | 0.164 | 0.172 | 0.175 | 0.708 | 0.622 | 0.297 | 0.428
2 | SK-MES-1 | 1.27 | 1.1 | 1.15 | 0.576 | 1.12 | 0.885 | 0.946 | 0.535 | 1.07 | 1.02 | 0.542 | 0.159 | 0.47 | 0.283 | 0.294 | 0.232 | 0.396 | 0.382 | 0.328 | 0.209
3 | SW 1573 | 1.07 | 1.02 | 0.824 | 0.815 | 0.882 | 0.801 | 0.744 | 0.202 | 0.199 | 0.185 | 0.231 | 0.187 | 0.624 | 0.516 | 0.576 | 0.451 | 0.515 | 0.406 | 0.441 | 0.372
4 | UMC-11 | 0.337 | 0.278 | 0.207 | 0.162 | 1.19 | 1.16 | 1.11 | 0.619 | 0.199 | 0.218 | 0.184 | 0.16 | 0.508 | 0.477 | 0.491 | 0.331 | 0.688 | 0.464 | 0.587 | 0.541
